This is an account of results in ChEMBL document CHEMBL3407463 (Eur J Med Chem, 2014).

The source made the active and inactive calls. No cut-off for these calls is given here. Where only a bound is given, the exact number is not on record here.

For experiment [1], the system named is MCF7. Kind of experiment: Cytotoxicity against human placental microsome aromatase expressing human MCF7 cells assessed as reduction in cell viability at 1 to 2.5 uM after 2 days by MTT assay in presence of testosterone. It is filed as functional. A general note: Tetrazolium assays rely on reduction of a dye to a coloured formazan, in cell work by metabolically active cells.

The subject of experiment [2] is MCF7. Kind of experiment: Cytotoxicity against human placental microsome aromatase expressing human MCF7 cells assessed as reduction in cell viability at 5 to 15 uM after 2 days by MTT assay in presence of testosterone. It is filed as functional, cell-based.
Experiment [3] concerns MCF7. Description: Cytotoxicity against human placental microsome aromatase expressing human MCF7 cells at 1 to 15 uM after 2 to 6 days by LDH assay in presence of testosterone. It is filed as functional, cell-based.
The subject of experiment [4] is MCF7. Description: Cytotoxicity against human placental microsome aromatase expressing human MCF7 cells assessed as reduction in cell viability up to 15 uM after 3 to 6 days by MTT assay in presence of estradiol. It is filed as functional, cell-based.
Experiment [5] concerns the target T1, Aromatase (Homo sapiens, UniProt P11511).
T1 sequence (P11511 whole entry): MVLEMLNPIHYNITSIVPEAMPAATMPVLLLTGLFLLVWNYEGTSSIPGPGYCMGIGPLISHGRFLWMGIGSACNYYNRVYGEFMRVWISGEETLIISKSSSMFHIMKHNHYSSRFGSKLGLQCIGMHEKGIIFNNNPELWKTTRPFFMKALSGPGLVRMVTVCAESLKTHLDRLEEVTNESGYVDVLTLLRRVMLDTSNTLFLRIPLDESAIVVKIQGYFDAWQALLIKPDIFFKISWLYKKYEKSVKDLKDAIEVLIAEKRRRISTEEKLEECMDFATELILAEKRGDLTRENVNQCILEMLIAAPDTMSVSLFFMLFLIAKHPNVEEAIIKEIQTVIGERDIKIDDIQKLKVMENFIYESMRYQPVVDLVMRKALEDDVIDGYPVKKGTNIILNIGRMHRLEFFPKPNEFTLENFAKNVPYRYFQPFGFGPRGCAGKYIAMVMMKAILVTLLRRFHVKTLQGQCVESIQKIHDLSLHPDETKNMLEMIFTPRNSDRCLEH
Kind of experiment: Inhibition of human placental microsome aromatase using [1beta-3H] androstenedione as substrate at 2 uM after 15 mins by liquid scintillation counting. The settings on record: 0.25 h.

The target of experiment [6] is T1, Aromatase. Description: Inhibition of human placental microsome aromatase using [1beta-3H] androstenedione as substrate after 15 mins by liquid scintillation counting.
The target of experiment [7] is T1, Aromatase. Kind of experiment: Inhibition of human […] aromatase expressed in human MCF7 cells using [1beta-3H] androstenedione as substrate at 10 uM after 1 hr by liquid scintillation counting. It is filed as cell-based.
The target of experiment [8] is T1, Aromatase. Description: Inhibition of human […] aromatase expressed in human MCF7 cells using [1beta-3H] androstenedione as substrate after 1 hr by liquid scintillation counting. It is filed as cell-based.
For experiment [9], the system named is MCF7. Description: Cytotoxicity against human placental microsome aromatase expressing human MCF7 cells after 2 to 6 days by MTT assay in presence of testosterone. It is filed as functional, cell-based.
Experiment [10] deals with MCF7. Kind of experiment: Cytotoxicity against human placental microsome aromatase expressing human MCF7 cells at 1 to 15 uM by MTT assay in presence of testosterone. It is filed as functional, cell-based. The conditions noted are these: TDE = time-dependent effect.
Experiment [11] has as its system MCF7. Kind of experiment: Cytotoxicity against human placental microsome aromatase expressing human MCF7 cells at 5 to 15 uM after 2 to 3 days by LDH assay in presence of testosterone. It is filed as functional, cell-based.
Experiment [12] has as its system MCF7. Kind of experiment: Cytotoxicity against human placental microsome aromatase expressing human MCF7 cells assessed as reduction in cell viability up to 5 uM after 3 to 6 days by MTT assay in presence of estradiol. It is filed as functional, cell-based.
The test system of experiment [13] is MCF7. Description: Cytotoxicity against human placental microsome aromatase expressing human MCF7 cells at 0.01 to 15 uM by MTT assay in presence of testosterone. It is filed as functional, cell-based. The settings on record: TDE = time-dependent effect.
Experiment [14] deals with MCF7. Kind of experiment: Cytotoxicity against human placental microsome aromatase expressing human MCF7 cells assessed as reduction in cell viability up to 15 uM after 3 to 6 days by MTT assay in presence of testosterone. It is filed as functional, cell-based.

Take `C[C@]12C=CC(=O)C=C1[C@@]1(CO1)C[C@@H]1[C@@H]2CC[C@]2(C)C(=O)CC[C@@H]12`: the outcome in the experiment with MCF7 [1] and with MCF7 [4] was Active. For the same compound, the result with MCF7 [2] and with MCF7 [3] was inactive. Further, at Aromatase [5], the inhibition at 2 µM was 91.7%. Moreover, the results for the IC50 against Aromatase [6] and against Aromatase [8] were 620 nM and 730 nM, respectively. At Aromatase [7], this compound had an inhibition at 10 µM of 95.3%. For the same compound, the Activity result in the experiment with MCF7 [9] was “Dose-dependent effect”; in the experiment with MCF7 [10] it was “tde”.
For the compound `C[C@]12C=CC(=O)C=C1C(CO)=C[C@@H]1[C@@H]2CC[C@]2(C)C(=O)CC[C@@H]12`, the result in the experiment with MCF7 [1] and with MCF7 [4] was Active. Also, the result with MCF7 [2] and in the experiment on MCF7 [3] was inactive. 2 µM produced 81% inhibition against Aromatase [5]. Further, the IC50 against Aromatase [6] was determined as 670 nM; against Aromatase [8] it was 980 nM. This compound yielded an inhibition at 10 µM on Aromatase [7] of 84%. The values for the Activity entry in the experiment on MCF7 [9] and in the experiment with MCF7 [10] were “Dose-dependent effect” and “tde”, respectively.
With `C=C1C[C@@H]2[C@H](CC[C@]3(C)C(=O)CC[C@@H]23)[C@]2(C)C1=CC(=O)[C@@H]1O[C@@H]12`, the Activity is less than 25% with MCF7 [1], “Dose-dependent effect” with MCF7 [9] and “tde” in the experiment with MCF7 [13]. For the same compound, the result with MCF7 [11] and in the experiment on MCF7 [12] was Active. This compound returned an inhibition at 2 µM against Aromatase [5] of 86.8%. For the same compound, the results for the IC50 against Aromatase [6] and against Aromatase [8] were 810 nM and 1180 nM, respectively. At Aromatase [7], this compound yielded an inhibition at 10 µM of 88.6%.
As for `C=C1C[C@H]2[C@@H]3CC[C@H](O)[C@@]3(C)CC[C@@H]2[C@@]2(C)C=CC(=O)C=C12`, the outcome in the experiment on MCF7 [1], in the experiment on MCF7 [4] and with MCF7 [14] was Active. Moreover, the outcome in the experiment on MCF7 [2] and in the experiment with MCF7 [3] was inactive. Further, the Activity result in the experiment with MCF7 [9] was “Dose-dependent effect”; with MCF7 [10], “tde”.

A word on the inhibition: it is the percentage by which the read-out fell short of the control. A high value points to strong suppression. Broadly, the IC50 is the midpoint of a concentration-inhibition curve. A high value points to lower potency.
